These are literature values, as cited in US20100129431A1, “IDEBENONE COMPOSITION FOR THE TREATMENT OF NEUROLOGICAL DISORDERS” (AlphaRx Inc., priority 2008, published 2010).

Molecules are shown by their SMILES.

For data set [1], the system named is microsomal lipid peroxidation. The note with it: induced by ADP-iron complexes or organic hydroperoxides.
Data set [2] has as its system Friedreich's Ataxia patients.
For data set [3] the following is noted: oral.
The conditions of data set [4]: clinical tests.
For data set [5], the system named is cultured cortical neurons. The following applies: also when applied 30 minutes after the NMDA pulse.
In data set [6] the test system is patients with cerebrovascular disease. The following applies: 90 mg daily, nine patients.
Another data set deals with rats. The note with it: cerebral embolization, cerebral ischemia or basal forebrain lesions.
A further data set relates to free radical species. The note with it: cell cultures.

Turning to `COC1=C(OC)C(=O)C(CCCCCCCCCCO)=C(C)C1=O` [Idebenone, 2,3-dimethoxy-5-methyl-6-(10-hydroxydecyl)-1,4-benzoquinone], the water solubility entry is reported as “low”. In addition, in [1], the microsomal lipid peroxidation result is on record as “inhibit microsomal lipid peroxidation”. Further, the left ventricular enlargement result in [2] (5 mg/kg daily for 4-9 months, three patients) is listed as “reduction of left ventricular enlargement”. In data set [2] (oral 5 mg/kg daily for 8 weeks), the “marker of oxidative DNA damage” value is “significantly decreased”. Further, in data set [3], the bioavailability entry was “relatively, high”. Also, the “psychological deficits (memory retention, disorientation)” value in [4] is recorded as “effective in reducing psychological deficits”. The “protection against necrotic degeneration” value in data set [5] is listed as “protects cultured cortical neurons against necrotic degeneration”. Also, the “EEG and clinical symptoms” value in data set [6] is “improvements in EEG and clinical symptoms”. In addition, the “learning and memory disturbances” value in the data set on rats is “ameliorates learning and memory disturbances”. The free radical scavenging entry with free radical species is listed as “scavenged a variety of free radical species”.
